Consider eight compounds from patent US8614166B2, “Herbicidal composition for tolerant or resistant cotton crops” (Bayer Intellectual Property GmbH, priority 1998, dated 2013).

Common to all, as to assay: Field trial in tolerant cotton, herbicidal action against weed
Holding throughout (assay type): in vivo

Experiment [1] has as its system Echinocloa colonum. Conditions: application in the 4-5-leaf stage, scoring 3 weeks after application. As for the experimental part: (§1) Transgenic cotton plants with a resistance to one or more herbicides (A) together with typical weed plants were grown in the open on 2×5 m plots under natural field conditions; alternatively, weed infestation occurred naturally when the cotton plants were grown.
(§2) […] The damage to, and the development of, all aerial parts of the plants was recorded. Scoring was done on the basis of a percentage sale (100% action=all plants destroyed; 50% action=50% of the plants and green parts of the plants destroyed; 0% action=no recognizable effect=like control plot. The mean of the score values of in each case 4 plots was calculated.

The subject of experiment [2] is Datura stramonium. Conditions: application in the 4-5-leaf stage, scoring 3 weeks after application. As for the experimental part:
as §1, §2

For experiment [3], the system named is Ipomoea hederacea. The settings on record: application in the 4-leaf stage, scoring 23 days after application. As for the experimental part: as §1, §2
Experiment [4] relates to Sorghum halepense. Conditions: application in the 4-leaf stage, scoring 30 days after application. As for the experimental part: as §1
(§3) 2, 4, 6 and 8 weeks after the application, the herbicidal activity of the active substances or active substance mixtures was scored visually with reference to the treated plots in comparison to untreated control plots. The damage to, and the development of, all aerial parts of the plants was recorded. Scoring was done on the basis of a percentage sale (100% action=all plants destroyed; 50% action=50% of the plants and green parts of the plants destroyed; 0% action=no recognizable effect=like control plot. The mean of the score values of in each case 4 plots was calculated.

In experiment [5] the test system is Abutilon theophrasti. Conditions: dose 300 g of a.s./ha; application in the 4-5 leaf stage; scoring 27 days after application. As for the experimental part:
as §1, §3

Counter-ions that a name gives are not always drawn.

As to `CCc1cccc(C)c1N(C(=O)CCl)C(C)COC` (stereo not shown) [(B1.9), 2-chloro-N-(2-ethyl-6-methylphenyl)-N-(2-methoxy-1-methylethyl)acetamide], the “Herbicidal action (%) against Echinocloa colonum” value in experiment [1] (dose 930 g of a.s./ha) was 88%. Moreover, the “Herbicidal action (%) against Datura stramonium” value in experiment [2] (dose 930 g of a.s./ha) turned out to be 0%.

Regarding `COc1cc(OC)nc(Sc2cccc(Cl)c2C(=O)[O-])n1.[Na+]` [(B2.4), sodium 2-chloro-6-(4,6-dimethoxypyrimidin-2-ylthio)benzoate], the “Herbicidal action (%) against Ipomoea hederacea” value in experiment [3] (dose 105 g of a.s./ha) is reported as 42%.

With `N#Cc1cc(Br)c(O)c(Br)c1` [(B5.1), 3,5-dibromo-4-hydroxybenzonitrile], in experiment [3] (dose 560 g of a.s./ha), the “Herbicidal action (%) against Ipomoea hederacea” value is given as 32%.

Regarding `CN(C)C(=O)Nc1cccc(C(F)(F)F)c1` [(B1.2), N,N-dimethyl-N′-[3-(trifluoromethyl)phenyl]urea], the “Herbicidal action (%) against Ipomoea hederacea” value in experiment [3] (dose 1120 g of a.s./ha) was found to be 37%.

For `CP(=O)(O)CCC(N)C(=O)O` (stereo not shown) [(A1.2), glufosinate-monoammonium salt], the “Herbicidal action (%) against Echinocloa colonum” value in experiment [1] (dose 450 g of a.s./ha) was found to be 0%; in experiment [1] (dose 600 g of a.s./ha), 15%; in experiment [1] (dose 1000 g of a.s./ha), 30%. Besides, the results for the “Herbicidal action (%) against Datura stramonium” value in experiment [2] (dose 450 g of a.s./ha), in experiment [2] (dose 600 g of a.s./ha) and in experiment [2] (dose 1000 g of a.s./ha) were 75%, 90% and 100%, respectively. Further, the “Herbicidal action (%) against Ipomoea hederacea” value in experiment [3] (dose 400 g of a.s./ha) is recorded as 43%; in experiment [3] (dose 600 g of a.s./ha), 75%. Besides, the “Herbicidal action (%) against Sorghum halepense” value in experiment [4] (dose 300 g of a.s./ha) was found to be 15%; in experiment [4] (dose 500 g of a.s./ha), 53%. Besides, in experiment [5], the “Herbicidal action (%) against Abutilon theophrasti” value is 30%.

Take `CCC(CC)Nc1c([N+](=O)[O-])cc(C)c(C)c1[N+](=O)[O-]` [(B1.12), N-(1-ethylpropyl)-2,6-dinitro-3,4-xylidine]: the “Herbicidal action (%) against Ipomoea hederacea” value in experiment [3] (dose 925 g of a.s./ha) is 42%.

`COCc1cnc(C2=NC(C)(C(C)C)C(=O)N2)c(C(=O)O)c1` (stereo not shown) [(A3.5), imazamox]: the “Herbicidal action (%) against Ipomoea hederacea” value in experiment [3] (dose 35 g of a.s./ha) is on record as 42%.

For `CCCC(=NOCC)C1=C(O)CC(C2CCCSC2)CC1=O` (stereo not shown) [(B4.2), 2-(1-ethoxyiminobutyl)-3-hydroxy-5-thian-3-ylcyclohex-2-enone], the “Herbicidal action (%) against Sorghum halepense” value in experiment [4] (dose 125 g of a.s./ha) came out at 58%.
